Assay results as given in patent US9962383B2, “Compounds, compositions and methods of agelastatin alkaloids” (Massachusetts Institute of Technology, priority 2013, dated 2018).
Entries after “also recorded” stand apart in the source; their conditions may differ. Like-named read-outs stand apart in the source and are kept apart here.

Assays:
[1] = system: U-937; assay: 48-hour IC50 by MTS, U-937 lymphoma cells; type: cell-based, human
Protocol: (§1) Cells were grown in media supplemented with fetal bovine serum (FBS) and antibiotics (100 μg/mL penicillin and 100 U/mL streptomycin). […] Cells were incubated at 37° C. in a 5% CO2, 95% humidity atmosphere.
(§2) In a 96-well plate, compounds were pre-added as DMSO stocks (1% final) in triplicate to achieve final concentrations of 1 nM to 10 μM on a half log scale. DMSO and cell-free wells served as the live and dead control, respectively. […] IC50 values were determined from three or more independent experiments using TableCurve (San Jose, Calif.).

[2] = system: HeLa; assay: 48-hour IC50 by SRB, HeLa cervical carcinoma cells; type: cell-based, human
Protocol: as §1
(§3) Adherent cells (HeLa, A549, BT549, and IMR90) were added into 96-well plates (5,000 cells/well for HeLa cell line; 2,000 cells/well for A549, BT549, and IMR90 cell lines) in 100 μL media and were allowed to adhere for 2-3 hours. Compounds were solubilized in DMSO as 100× stocks, added directly to the cells (100 μL final volume), and tested over a range of concentrations (1 nM to 10 μM) in triplicate (1% DMSO final) on a half-log scale. DMSO and cell-free wells served as the live and dead control, respectively. […] Briefly, media was removed from the plate, and cells were fixed by the addition of 100 μL cold 10% trichloroacetic acid in water. After incubating at 4° C. for 1 h, the plates were washed in water and allowed to dry. Sulforhordamine B was added as a 0.057% solution in 1% acetic acid (100 μL), and the plates were incubated at room temperature for 30 min, washed in 1% acetic acid, and allowed to dry. […] IC50 values were determined from three or more independent experiments using TableCurve (San Jose, Calif.).

[3] = system: BT549; assay: 48-hour IC50 by SRB, BT549 breast carcinoma cells; type: cell-based, human
Protocol: as §1, §3

[4] = system: Daudi; assay: 48-hour IC50 by MTS, Daudi Burkitt's lymphoma cells; type: cell-based, human
Protocol: as §1, §2

[5] = system: HL-60; assay: 48-hour IC50 by MTS, HL-60 acute promyelocytic leukemia cells; type: cell-based, human
Protocol: as §1, §2

[6] = system: A549; assay: 48-hour IC50 by SRB, A549 non-small cell lung carcinoma cells; type: cell-based, human
Protocol: as §1, §3

[7] = system: IMR90; assay: 48-hour IC50 by SRB, IMR90  lung fibroblasts; type: cell-based, human
Protocol: as §1, §3

[8] = system: CA46; assay: 48-hour IC50 by MTS, CA46 Burkitt's lymphoma cells; type: cell-based, human
Protocol: as §1, §2

[9] = system: CEM; assay: 48-hour IC50 by MTS, CEM acute lymphoblastic leukemia cells; type: cell-based, human
Protocol: as §1, §2

[10] = system: human cell lines (U-937, HeLa, A549, BT549, IMR90); assay: Ability to induce cell death in the panel of five human cell lines (Table 3); type: cell-based; settings: for activity (ability to induce cell death) in words: 48-hour exposure, 1 nM to 10 μM, cell lines of Table 3; for reduction in anticancer potency relative to the compared agelastatin: (−)-2 vs (−)-1, (−)-6 vs (−)-4, D (4) and E (5) vs A (1), Table 3 data
Protocol: Six (−)-agelastatins along with eight closely related derivatives prepared in the above examples were tested (Table 3). The six (−)-agelastatin alkaloids (1-6, respectively), (−)-O-methyl-di-epi-agelastatin A (50), (−)-dehydroagelastatin A (51), (−)-di-epi-agelastatin C (52), (+)-O-methyl-pre-agelastatin A and D (39 and 53, respectively), along with bicyclic pyrroles (+)-44, (+)-45, and triazone (+)-48 were tested for their ability to induce cell death in four human cancer cell lines (U-937, lymphoma; HeLa, cervical carcinoma; A549, non-small cell lung carcinoma; and BT549, breast carcinoma) and one immortalized normal human cell line (IMR90, lung fibroblasts) after a 48-hour exposure. […] Furthermore, enhanced activities in U-937 (20×) cell relative to the other cell lines (Table 3) were observed.
Adherent cells (HeLa, A549, BT549, and IMR90) were added into 96-well plates (5,000 cells/well for HeLa cell line; 2,000 cells/well for A549, BT549, and IMR90 cell lines) in 100 μL media and were allowed to adhere for 2-3 hours. Compounds were solubilized in DMSO as 100× stocks, added directly to the cells (100 μL final volume), and tested over a range of concentrations (1 nM to 10 μM) in triplicate (1% DMSO final) on a half-log scale. DMSO and cell-free wells served as the live and dead control, respectively. After 48 h of continuous exposure, the plates were evaluated using the SRB colorimetric assay as described previously (V. Vichai, K. Kirtikara, Nature Prot., 2006, 1, 1112). Briefly, media was removed from the plate, and cells were fixed by the addition of 100 μL cold 10% trichloroacetic acid in water. After incubating at 4° C. for 1 h, the plates were washed in water and allowed to dry. Sulforhordamine B was added as a 0.057% solution in 1% acetic acid (100 μL), and the plates were incubated at room temperature for 30 min, washed in 1% acetic acid, and allowed to dry. The dye was solubilized by adding 10 mM Tris base solution (pH 10.5, 200 μL) and incubating at room temperature for 30 min Plates were read at λ=510 nm. IC50 values were determined from three or more independent experiments using TableCurve (San Jose, Calif.).
In a 96-well plate, compounds were pre-added as DMSO stocks (1% final) in triplicate to achieve final concentrations of 1 nM to 10 μM on a half log scale. DMSO and cell-free wells served as the live and dead control, respectively. Suspension cells (U-937, CEM, CA46, Daudi, HL-60, and Jurkat; 10,000 cells/well) cells were distributed in 100 μL media to the compound-containing plate. After 48 h, cell viability was assessed by adding 20 μL of a PMS/MTS solution (A. H. Cory, T. C. Owen, J. A. Barltrop, J. G. Cory, Cancer Commun., 1991, 3, 207) to each well, allowing the dye to develop at 37° C. until the live control had processed MTS, and reading the absorbance at λ=490 nm. IC50 values were determined from three or more independent experiments using TableCurve (San Jose, Calif.).

[11] = system: Jurkat; assay: 48-hour IC50 by MTS, Jurkat acute T-cell leukemia cells; type: cell-based, human
Protocol: as §1, §2

[12] = system: procaspase-3 and PARP-1 cleavage; assay: Western blot analysis of procaspase-3 and PARP-1 cleavage in U-937 cells; type: cell-based, human; settings: 24 hours
Protocol: FIG. 2. […] Western blot analysis of procaspase-3 and PARP-1 cleavage at 24 hours in U-937 cells using β-actin as loading control. Compounds were tested at indicated concentrations and STS (10 nM); C3=caspase-3; PARP=poly(ADP-ribose) polymerase 1; PC3=procaspase-3; STS=staurosporine.

[13] = system: tubulin dynamics; assay: Tubulin microscopy with HeLa cells; type: cell-based, human; settings: 16 hours, confocal microscopy
Protocol: HeLa cells were treated with compound for 16 hours, fixed, stained, and visualized using confocal microscopy.
Round, 1.5 mm coverslips (No. 1.5) were sterilized with ultraviolet light and placed in a 12-well plate. HeLa cells (100,000 cells/well) were added and allowed to adhere for eight hours. Compounds were then added as DMSO stocks to achieve a final DMSO concentration of 1%, and the plates were returned to the incubator for 16 hours.
Following incubation, the media was removed, and the coverslips were fixed with 0.5 mL Microtubulin Stabilizing Buffer (MTSB, 80 mM PIPES, pH 6.8, 1 mM MgCl2, 5 mM EGTA, 0.5% TX-100)+0.5% glutaraldehyde for 10 minutes at room temperature, after which the fixative was removed and the sample was quenched with the addition of 0.5 mL of freshly-prepared 1 mg/mL NaBH4 in PBS. After a 5 min incubation, the solution was removed by aspiration and the coverslips were washed with PBS.
Coverslips were transferred to parafilm-lined culture dishes (cell-side up), and 40 μL of 50 μg/mL RNase A in Antibody Diluting Solution (AbDil, PBS, pH 7.4, 0.2% TX-100, 2% BSA, 0.1% NaN3) with 1:50 dilution of anti-α-tubulin-FITC antibody was added to all samples. The samples were allowed to incubate at room temperature in the dark for 2.5 hours, after which the coverslips were washed three times with PBS+0.1% TX-100. […]

[14] = system: U-937 cells; assay: Apoptosis in U-937 cells with Annexin V-FITC and propidium iodide; type: cell-based, human; settings: 21 hours, flow cytometry
Protocol: FIG. 3. […] Analysis of phosphatidylserine exposure and propidium iodide inclusion at 21 hours in U-937 cells. Compounds were tested at indicated concentrations and STS was used as a positive control for apoptosis. Samples were analyzed by flow cytometry for the relative timing of phosphatidylserine exposure relative to PI inclusion. FITC=fluorescein isothiocyanate; PI=propidium iodide; STS=staurosporine.
DMSO stocks of compounds were added to a 24-well plate in singlicate (0.2% DMSO final). […] Following treatment, the cell suspensions were transferred to flow cytometry tubes and pelleted (500 g, 3 min). The media was removed by aspiration, and cells were resuspended in 200 μL AnnV binding buffer (10 mM HEPES, pH 7.4, 140 mM NaCl, 2.5 mM CaCl2) with 5 μg/mL PI and 1:90 dilution of AnnV. Samples were analyzed using flow cytometry.

[15] = system: synchronized U-937 cells; assay: Cell cycle arrest in thymidine-synchronized U-937 cells; type: cell-based, human; settings: 16 hours, PI, flow cytometry
Protocol: Samples were fixed, treated with an RNAse, stained with PI, and analyzed by flow cytometry. Taxol, a microtubule stabilizer, was used as a positive control. Error bars represent standard deviation of the mean, n=3. * p<0.01. PI=propidium iodide.
U-937 cells were split to 50% confluency (250,000 cells/mL) and treated with 2 mM thymidine for 10 hours. The cells were then pelleted (500 g, 3 minutes) and washed with PBS before being resuspended in thymidine-free media and allowed to recover for 13 hours. The cells were then re-blocked with 2 mM thymidine for 10 hours, and then washed with PBS as before and resuspended in media (250,000 cells/mL).
DMSO stocks of compounds were added to a 24-well plate in triplicate (0.2% DMSO final), after which 1 mL of the prepared cell suspension was added. Following a 16 h incubation, the cell suspensions were transferred to 2 mL tubes and pelleted (600 g, 3 min). The media was removed by aspiration, and the cells were fixed with 0.5 mL of ice cold 70% ethanol with vortexing. The samples were fully fixed at −20° C. for 3 hours. The samples were then pelleted (1000 g, 5 min) and the supernatant was removed via aspiration. […] Prior to reading, the samples were taken up in 150 μL of 50 μg/mL propidium iodide in PBS and transferred to flow cytometry tubes. Samples were analyzed based on whole, single cells.

[16] = IMR90 immortalized lung fibroblasts

CN1C(=O)N[C@@]2(O)[C@@H]3NC(=O)c4ccc(Br)n4[C@@H]3C[C@@]12O [(−)-3, (−)-agelastatin C]
IC50 [1]: > 10 µM
IC50 [2]: > 10 µM
IC50 [3]: > 10 µM
IC50 [4]: 7.2 ± 2.9 µM
IC50 [5]: > 10 µM
IC50 [6]: > 10 µM
IC50 [7, 16]: > 10 µM
IC50 [8]: > 10 µM
IC50 [9]: 2.1 ± 1.3 µM
activity (ability to induce cell death) in words ([10]; listed as (−)-agelastatin C (3)): little activity at the concentrations examined; also recorded: abolishes activity
IC50 [11]: 5.31 ± 0.35 µM

(−)-O-methyl-di-epi-agelastatin A [(−)-50]
IC50 [1]: > 10 µM
IC50 [2]: > 10 µM
IC50 [3]: > 10 µM
IC50 [6]: > 10 µM
IC50 [7, 16]: > 10 µM
activity (ability to induce cell death) in words [10]: None

COC1NC(=O)c2ccc(Br)n2C1Cc1c[nH]c(=O)[nH]1 (single isomer, unassigned; (+)) [(+)-53, (+)-O-methyl-pre-agelastatin D]
IC50 [1]: > 10 µM
IC50 [2]: > 10 µM
IC50 [3]: > 10 µM
IC50 [6]: > 10 µM
IC50 [7, 16]: > 10 µM
activity (ability to induce cell death) in words [10]: None

O=C1N[C@H]2[C@@H]3NC(=O)c4ccc(Br)n4[C@@H]3C[C@@]2(O)N1 [(−)-4, (−)-agelastatin D]
IC50 [1]: 0.24 ± 0.033 µM
activation of procaspase-3 to active caspase-3 and cleavage of PARP-1 [12]: dose-dependent activation
effect on tubulin dynamics [13]: do not affect tubulin dynamics
IC50 [2]: 1 ± 0.2 µM
IC50 [3]: 0.631 ± 0.082 µM
IC50 [4]: 0.202 ± 0.015 µM
IC50 [5]: 0.54 ± 0.12 µM
IC50 [6]: 0.92 ± 0.16 µM
IC50 [7, 16]: 2.75 ± 0.6 µM
IC50 [8]: 0.46 ± 0.24 µM
apoptosis (phosphatidylserine exposure and propidium iodide inclusion) [14]: induced dose-dependent apoptosis
IC50 [9]: 0.074 ± 0.025 µM
G2/M cell cycle arrest [15]: dose-dependent G2/M cell cycle arrest
reduction in anticancer potency relative to the compared agelastatin [10]: 1-5 fold
IC50 [11]: 0.21 ± 0.063 µM

(−)-agelastatin B [(−)-2]
IC50 [1]: 1.06 ± 0.16 µM
IC50 [2]: 4.8 ± 1.2 µM
IC50 [3]: 4.8 ± 1.1 µM
IC50 [4]: 0.46 ± 0.28 µM
IC50 [5]: 2.4 ± 1 µM
IC50 [6]: > 10 µM
IC50 [7, 16]: > 10 µM
IC50 [8]: 1.07 ± 0.42 µM
IC50 [9]: 0.29 ± 0.2 µM
activity (ability to induce cell death) in words [10]: relatively weaker activity
IC50 [11]: 0.75 ± 0.44 µM

(−)-di-epi-agelastatin C [(−)-52]
IC50 [1]: > 10 µM
IC50 [2]: > 10 µM
IC50 [3]: > 10 µM
IC50 [6]: > 10 µM
IC50 [7, 16]: > 10 µM
activity (ability to induce cell death) in words [10]: None

CO[C@H]1NC(=O)c2ccc(Br)n2[C@@H]1Cc1c[nH]c(=O)n1C [(+)-39, (+)-O-methyl-pre-agelastatin A]
IC50 ([1]; Homo sapiens): > 10 µM
IC50 ([2]; Homo sapiens): > 10 µM
IC50 ([3]; Homo sapiens, BT-549): > 10 µM
IC50 ([6]; Homo sapiens): > 10 µM
IC50 ([7]; Homo sapiens, IMR-90, IMR90 immortalized lung fibroblasts): > 10 µM
activity (ability to induce cell death) in words [10]: None

CO[C@@]12C[C@@H]3[C@@H](NC(=O)c4ccc(Br)n43)[C@@H]1NC(=O)N2C [(−)-5, (−)-agelastatin E]
IC50 [1]: 2.56 ± 0.13 µM
IC50 [2]: 8.6 ± 0.81 µM
IC50 [3]: 6.9 ± 2.5 µM
IC50 [4]: 1.41 ± 0.53 µM
IC50 [5]: 4.6 ± 3.6 µM
IC50 [6]: > 10 µM
IC50 [7, 16]: > 10 µM
IC50 [8]: 2.45 ± 0.95 µM
IC50 [9]: 0.83 ± 0.37 µM
activity (ability to induce cell death) in words [10]: relatively weaker activity
reduction in anticancer potency relative to the compared agelastatin [10]: > 10 fold
IC50 [11]: 1.5 ± 0.33 µM

(−)-dehydroagelastatin A [(−)-51]
IC50 [1]: > 10 µM
IC50 [2]: > 10 µM
IC50 [3]: > 10 µM
IC50 [6]: > 10 µM
IC50 [7, 16]: > 10 µM
activity (ability to induce cell death) in words [10]: None

O=C1N[C@H]2[C@@H]3NC(=O)c4cc(Br)c(Br)n4[C@@H]3C[C@@]2(O)N1 [(−)-6, (−)-agelastatin F]
IC50 [1]: > 10 µM
IC50 [2]: > 10 µM
IC50 [3]: > 10 µM
IC50 [4]: > 10 µM
IC50 [5]: > 10 µM
IC50 [6]: > 10 µM
IC50 [7, 16]: > 10 µM
IC50 [8]: > 10 µM
IC50 [9]: > 10 µM
activity (ability to induce cell death) in words [10]: little activity at the concentrations examined
IC50 [11]: > 10 µM
